According to ChEMBL document CHEMBL1201862, “PubChem BioAssay data set” (2004):
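Briefly, cells in 96-well plates were exposed to five compound concentrations for 48 h, and endpoints were estimated by linear interpolation. Here, GI50 denotes the concentration required for 50% inhibition of growth.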 Active and inactive are the calls of the source. No stated cut-off is given here; in the data, active = GI50 up to about 1.1 µM and inactive = higher.

Assays:
Assay in all cases: DTP human tumour cell line panel, 48 h
[1] = tested on: RXF 631
[2] = tested on: KM-20L2
[3] = tested on: BT-549
[4] = tested on: DMS-114
[5] = tested on: HOP-18
[6] = tested on: LXFL 529
[7] = tested on: M19-MEL
[8] = tested on: SNB-78
[9] = tested on: DLD-1

Measured: GI50

COc1cc(Nc2nc3c(N)cc(C(F)(F)F)cc3nc2-c2ccccc2)cc(OC)c1OC
inactive: [1] > 44.5 µM | [2] > 65.5 µM | [3] 35.5 µM | [4] 81.8 µM | [5] 29.8 µM | [6] 63.5 µM | [7] > 82.2 µM

COc1ccc(NC(=O)/C(=C/c2ccccc2)C(C)=O)cc1
inactive: [8] 15.5 µM | [1] 15.7 µM | [9] 12.8 µM | [2] 14.3 µM | [4] 15.2 µM | [5] 13.5 µM | [6] 12.4 µM | [7] 14.3 µM

Cc1cc(N(CCC#N)CCC#N)ccc1/C(Sc1ccccc1)=C(\NC(=O)/C=C/c1ccccc1)C(=O)Sc1ccccc1
inactive: [8] 3.33 µM | [1] 2.79 µM | [9] 1.73 µM | [2] 2.14 µM | [4] 1.54 µM | [5] 14 µM | [6] 1.57 µM | [7] 3.22 µM

Cc1nc(N)nc(N)c1CCCCc1ccccc1
inactive: [8] 35.3 µM | [1] 11.9 µM | [9] 6.15 µM | [2] 10.8 µM | [4] 5.02 µM | [5] 42.1 µM | [6] 9.89 µM | [7] 12.4 µM

COc1ccc(C2C(C(=O)O)=C(CO)Oc3cc4c(cc32)OCO4)c(OC)c1 (centres undefined)
inactive: [8] > 100 µM | [1] 87.3 µM | [9] 54.7 µM | [2] > 100 µM | [4] 84.5 µM | [5] 98.2 µM | [7] 60.4 µM

CCOC(=O)Cn1c(=O)[nH]c(=O)c2c1ncn2Cc1ccccc1
inactive: [8] > 100 µM | [1] > 100 µM | [9] > 100 µM | [2] > 100 µM | [4] > 100 µM | [5] > 100 µM | [6] > 100 µM | [7] > 100 µM

O/N=C1/C(=C/c2ccc(OCc3ccccc3)cc2)CCCC1C(NO)c1ccc(OCc2ccccc2)cc1 (centres undefined)
inactive: [1] 8.47 µM | [9] 10.2 µM | [2] 8.38 µM | [5] 33 µM | [6] 12.7 µM | [7] 22.2 µM

Cc1cc2nc3c(=O)[nH]c(=O)nc-3n(CC(O)C(O)C(O)CO)c2cc1N (centres undefined)
inactive: [8] > 100 µM | [1] > 100 µM | [4] > 100 µM | [5] > 100 µM | [6] > 100 µM | [7] > 100 µM

C/C=N\N1C(=O)c2ccccc2C1=O
inactive: [8] > 100 µM | [1] > 100 µM | [9] > 100 µM | [2] > 100 µM | [4] > 100 µM | [5] > 100 µM | [6] > 100 µM | [7] > 100 µM

CC1OC(n2cc(F)c(=O)[nH]c2=O)C=CC1O (centres undefined)
inactive: [8] > 100 µM | [1] > 100 µM | [9] > 100 µM | [2] > 100 µM | [4] > 100 µM | [5] > 100 µM | [6] > 100 µM | [7] > 100 µM

CNC(=O)OCc1nc([S+](C)[O-])n(C)c1COC(=O)NC (centres undefined)
inactive: [8] > 60.5 µM | [1] > 100 µM | [9] > 100 µM | [2] > 100 µM | [4] > 34.6 µM | [5] > 88.9 µM | [6] > 23.1 µM | [7] > 45.1 µM

NC(=O)c1c[se]c(C2OC(CO)C(O)C2O)n1 (centres undefined)
inactive: [1] 7.6 µM | [9] 1.88 µM | [3] 8.09 µM | [4] 25.4 µM | [5] > 100 µM | [6] 17 µM | [7] 5.28 µM
